# Patent US20080226750A1, “Methods, Compositions and Articles of Manufacture for Treating Shock and Other Adverse Conditions” (priority 2006, published 2008)
# Read-outs that look alike come from different tables or passages of the source.
# Legend:
# rat hemorrhage model = assay: Controlled lethal hemorrhage (60% blood loss) in rats treated with H2S; assay type: in vivo
# Protocol: After surgical implantation of catheters and recovery, blood was removed from conscious animals in 40 minutes. […] Three hours after the end of the bleed, surviving animals were given one shed-blood volume of lactated ringers solution intravenously.
# Drosophila melanogaster [1] = assay: Anoxia tolerance of adult flies after CO2 and/or H2S pretreatment; assay type: in vivo
# Protocol: Basic experimental setup. Adult flies were introduced into 35 mL tubes made of glass with a gas-tight rubber stopper (Balsh tubes). This was usually accomplished by anesthetizing flies with CO2, moving groups of flies to vials with food to recover for at least 2 hours, and then transferring them into the Balsh tube. To exchange the gaseous environment in the Balsh tube, two 18 gauge needles were inserted into the rubber stopper, and gas is blown into one of the needles at 100 mL/min. To prevent dessication, gasses were humidified by bubbling through 10 mL of water before passing it through the Balsch tube. The water in the bubbler is equilibrated with the gas for at least 20 minutes before starting the experiment.
# For “stopped-flow” experiments, gas exchange proceeded for 60 minutes before sealing the tube. For “low-flow” experiments, gas flow continued throughout the experiment. CO2 was from the house source (100%), and anoxic environments were established by flushing out room air with 100% nitrogen (N2). Care was taken to prevent introduction of room air into the system while switching the atmosphere from CO2 to N2.
# After anoxic treatment, oxygen was reintroduced into the Balsh tube by flushing with house air for 20 minutes. The rubber stopper was then removed and a food vial is inverted over the top of the Balsh tubes with Parafilm. […] Viability was scored at least 18 hours after the end of anoxic treatment. After two weeks, if the food vials contained larvae and/or pupae the flies were considered to be fertile.
# mice in lethal hypoxia = assay: Survival of H2S pre-treated mice in lethal hypoxia; assay type: in vivo, mouse; conditions: graded reduction of oxygen tension following H2S pre-treatment
# Protocol: FIG. 11 Survival of Mice in 5% Oxygen.
# Experiments were stopped at 60 minutes and if the animals still alive were returned to their cage.
# mice = assay: Metabolic rate (CO2 production, O2 consumption) of mice with H2S and hypoxia; assay type: in vivo, mouse; conditions: Ta=13° C.
# Protocol: FIG. 14 Metabolic Rate of a Mouse in 5% Oxygen. […] Metabolic rate measured by CO2 output. […] At hour 6 the mouse was returned to room air and allowed to recover.
# FIG. 15 CO2 Production During Transition to Lethal Hypoxia. […] In addition, the change in CO2 production upon step-wise transition to 5% O2 for 1 hr followed by 4% O2 was measured. The percent change in CO2 production is plotted with standard error indicated.
# Relative carbon dioxide production and oxygen consumption of a mouse when pretreated and exposed to 5% O2. […] These experiments were done at Ta=13° C. so they could be compared to our previous studies. Values are the means from three animals and the error bars represent one standard deviation. p-values indicate the significance between the bars with the same symbols.
# To determine the rate of consumption of oxygen or the rate of production of carbon dioxide the biological matter is placed into a chamber that is sealed with two openings; for gas import and export. Gas (room air or other gases) is passed into the chamber at a given flow rate and out of the exit port to maintain approximately 1 atmosphere of pressure in the chamber. […]
# In addition, the change in CO2 production upon step-wise transition to 5% O2 for 1 hr followed by 4% O2 was measured.
# C. elegans [2] = assay: Thermotolerance of C. elegans adapted to H2S; assay type: in vivo
# Text: A: Adapted animals survive at high temperature longer than unadapted controls. Adapted animals were exposed to high temperature in H2S as young adults.
# C. elegans [3] = assay: Lifespan of C. elegans adapted to H2S; assay type: in vivo
# Text: Animals raised in house air were moved to H2S-containing environments at the beginning of the lifespan experiment. The lifespan of these animals is 14.8±0.3 days, which is shorter than controls that remained in house air (mean lifespan 18.2±0.4 days).
# C. elegans [4] = assay: Developmental rates, progeny and rate of egg-laying of C. elegans in H2S; assay type: in vivo
# Text: The rate of egg-laying is tightly correlated with oocyte production, an energetically expensive activity that is a sensitive readout of metabolic capacity.
# rodents and humans = conditions: 500 ppm; followed by recovery; cited from earlier work
# rats = conditions: cited from earlier work
# humans = conditions: cited from earlier work
# [5] = tested on: Drosophila melanogaster embryos and larvae; assay: Anoxia survival of fly embryos and larvae; assay type: in vivo
# Protocol: Preliminary experiments with larvae and embryos. […] After exposure to anoxia for 24 h, 7 pupae were formed from a pool of 0-19 h old embryos. However, 20 pupae were observed from a matched pool that was pretreated with CO2 for 10 min.
# Drosophila melanogaster [6] = assay: Anoxia tolerance of adult flies after CO2 and/or H2S pretreatment; assay type: in vivo; conditions: bubbler water not equilibrated with N2, 13 h anoxic exposure
structure (smiles),measurement,setting,value
"S [H2S, Hydrogen sulfide]",Complete recovery,rat hemorrhage model; 300 ppm H2S in room air from 20 min into the 40 min bleed to end of bleed,85.7%
same,Rats that survived hemorrhage and 3 hour shock period and recovered completely,"rat hemorrhage model; 300 ppm H2S, survivors/treated",6/7
same,Blood bicarbonate content ([HCO3^−]),rat hemorrhage model; End of bleed,21 ± 3 mmol/L
same,Blood bicarbonate content ([HCO3^−]),rat hemorrhage model; Pre-bleed,32 ± 3 mmol/L
same,Survival of adult flies,"Drosophila melanogaster [1]; 50 ppm H2S in room air prior to anoxia, 18.5 h",25%
same,Survival of adult flies,"Drosophila melanogaster [1]; 50 ppm H2S in the CO2 pretreatment, removed as anoxia is established, 20 h",35%
same,Survival of adult flies,"Drosophila melanogaster [1]; CO2 10 min, H2S/CO2 10 min, N2/H2S 10 min, then N2, 15 h anoxic exposure, low-flow",50%
same,Lowest oxygen tension survived for an hour,mice in lethal hypoxia,2.5%
same,Drop in metabolic rate,mice; 150 ppm H2S 20 min pretreatment then long exposure to 5% oxygen,over 50 fold
same,Drop in metabolic rate,"mice; H2S alone for the same period of time (80 ppm, six hours)",10 fold
same,Survival at high temperature,C. elegans [2]; adapted animals at high temperature in room air,7.3 h
same,H2S-treated animals alive when all untreated animals had died,"C. elegans [2]; average, data not shown",80%
same,Mean survival time at high temperature,"C. elegans [2]; sir-2.1(ok434) animals grown in H2S, high temperature in H2S (n=20)",9.8 ± 0.3 h
same,Mean survival time at high temperature,C. elegans [2]; unadapted animals moved to high temperature in 50 ppm H2S,2.1 h
same,Mean survival time at high temperature,"C. elegans [2]; wild-type adapted animals, high temperature in H2S (n=136)",65.5 h
same,Mean lifespan,C. elegans [3]; adapted animals in H2S (n=80),22.6 ± 1.0 days
same,Increase of maximum lifespan,C. elegans [3]; animals grown in H2S versus untreated controls,4 days
same,Lifespan,"C. elegans [3]; raised in house air, moved to H2S at the beginning of the lifespan experiment",14.8 ± 0.3 days
same,Lifespan,C. elegans [3]; sir-2.1(ok434) animals raised in H2S (n=47),20.0 ± 1.6 days
same,Rate of egg-laying,"C. elegans [4]; adapted (wild-type in 50 ppm H2S), in 2% O2",4.9 ± 1.4 embryos per hour
same,Rate of egg-laying,"C. elegans [4]; adapted (wild-type in 50 ppm H2S), in 2% O2 + H2S",4.7 ± 1.2 embryos per hour
same,Rate of egg-laying,"C. elegans [4]; adapted (wild-type in 50 ppm H2S), in H2S",7.8 ± 2.0 embryos per hour
same,"embryogenesis, hours ± SEM (n)","C. elegans [4]; adapted: wild-type animals in 50 ppm H2S, median time for 2-cell embryos to hatch at room temperature",13.3 ± 0.4 (34) hours
same,"post-embryonic, hours ± SEM (n)","C. elegans [4]; adapted: wild-type animals in 50 ppm H2S, median time for starved first-stage larvae to become gravid adults",49.3 ± 0.2 (15) hours
same,Numbers of progeny,C. elegans [4]; animals raised in low H2S,221±35
same,Rate of egg-laying,"C. elegans [4]; clk-1(qm30), in 2% O2 + H2S",2.5 ± 1.0 embryos per hour
same,Rate of egg-laying,"C. elegans [4]; clk-1(qm30), in H2S",3.2 ± 1.1 embryos per hour
same,Rate of egg-laying,"C. elegans [4]; unadapted (wild-type grown in room air), in H2S, ± SD, n = 10",8.3 ± 3.0 embryos per hour
same,Rate of egg-laying,"C. elegans [4]; unadapted, in 2% O2 + H2S",4.5 ± 1.6 embryos per hour
same,Effect of exposure to extreme levels,rodents and humans,sudden collapse and unconsciousness
same,Effect of perinatal exposure,"rats; 20 or 50 ppm H2S, 7 hours per day from gestation through post-natal day 21",longer dendritic branches with reduced aborization of cerebellar Purkinje cells
same,Effects of repeated gas exposure,"rats; 80 ppm or greater H2S, 3 hours per day on five consecutive days (Struve et al. 2001)","Significant reductions in motor activity, water maze performance and body temperature"
same,"Behavioral toxicity, learning","rats; moderate levels (Partlo et al., 2001)",interferes with the ability of rats to learn a baited radial arm maze task
same,"Behavioral toxicity, avoidance","rats; moderate levels, immediately after the end of the exposure (Higuchi and Fukamachi)",inhibits discriminated avoidance responses
same,Effects in exposed rat pups,"rats; perinatal study, 80 ppm H2S (Dorman et al. 2000)","no neuropathological effects or altered motor activity, passive avoidance, or acoustic startle response"
"[C-]#[O+] [carbon monoxide, Carbon monoxide]",Effect on exposed humans,humans; 50 ppm,no symptoms
same,Effect on exposed humans,"humans; 200 ppm, within two-three hours",slight headache
same,Effect on exposed humans,"humans; 400 ppm, within one to two hours",frontal headache
same,Effect on exposed humans,"humans; 800 ppm, within 45 minutes","dizziness, nausea, and/or convulsions"
same,Effect on an organism,"humans; around 1000 ppm, exposure for more than around 1-2 minutes",expire
"O=C=O [CO, carbon dioxide]",Flies recovered,"Drosophila melanogaster [1]; treated only with CO2 for 10 min before the anoxic exposure, control experiment",11%
"O=C=O [CO2, carbon dioxide]",Survival of adult flies,"Drosophila melanogaster [1]; 10 min CO2 pretreatment, 17, 22, and 24 h anoxia, low-flow, one experiment",no survival
same,Survival of adult flies,"Drosophila melanogaster [1]; CO2 10 minutes pretreatment (no H2S), 20 h anoxic exposure, low-flow",6%
same,Survival of adult flies,"Drosophila melanogaster [1]; CO2 pretreatment 30 minutes, 19 h anoxic exposure, stopped-flow",54%
same,Survival of adult flies,"Drosophila melanogaster [1]; CO2 pretreatment 90 minutes, 19 h anoxic exposure, stopped-flow",28%
same,Survival of adult flies,"Drosophila melanogaster [1]; CO2 pretreatment, anoxic exposure, then CO2 for 20 minutes immediately following",no flies survived
same,Survival of adult flies,Drosophila melanogaster [1]; CO2 without subsequent anoxic exposure,No survival
same,Effect of CO2 pretreatment in cold treatment experiments,Drosophila melanogaster [1]; flies kept at 4° C. during anoxia,did not have a noticeable difference
same,Survival versus no pretreatment,"Drosophila melanogaster [1]; low-flow, 100% CO2 10 min, trend (FIG. 9)",greater survival
same,Time of CO2 administration giving the highest fraction of surviving flies,"Drosophila melanogaster [1]; stopped-flow, 22 h anoxic exposure",0.5 to 5 min
same,Survival of 0-24 h old embryos,[5]; 18.5 h anoxic exposure,develop to adulthood
same,Movement of larvae upon reoxygenation,"[5]; 24.5 h anoxia, only if pretreated",resume movement
same,Pupae formed from a pool of 0-19 h old embryos,"[5]; CO2 pretreatment 10 min, anoxia 24 h",20 pupae
same,Survival of adult flies,Drosophila melanogaster [6],no flies survived
